The values below come from patent US4029801A, “Pharmaceutical compositions and methods of treating hypertension” (priority 1970, dated 1977).

One series is described as follows: Depressant activity. Format: in vivo. The following applies: result in words.
For series [1], the system named is blood pressure and heart rate. Description: Method 1 (rat): hypotensive activity in anaesthetised rats, i.v. As to conditions: for minimal effective dose: Rattus norvegicus, iv.
Description: Rats were anaesthetised with pentobarbitone sodium (60 mg/kg) and the jugular vein, trachea and carotid artery were cannulated. […] A decrease in heart rate of more than 30% from control values was considered to be significant bradycardia.
For another series, the system named is blood pressure. As to the kind of experiment: Tests for action on the cardiovascular system: hypotensive activity (activity in method 1, rats or cats, or method 2), reported in words. Format: in vivo, rat, cat. As to conditions: standard test procedure, result in words. Here is the method: Tests for action on the cardiovascular system were conducted according to one of the following procedures:
Cats were anaesthetised with pentobarbitone sodium (30 mg/kg) and the cephalic vein, femoral and carotid arteries and trachea were cannulated. The carotid cannula was introduced into the left ventricle and the femoral cannula into the aorta. Blood pressure and heart rate were recorded from the aortic cannula and left ventricular pressure from the carotid cannula. The test compunds were administered intravenously (0.1-25.6 mg/kg).
Method 2 (hypertensive rats)
Male or female rats are rendered hypertensive by applying a figure of 8 ligature around one kidney and contralateral nephrectomy. Blood pressure stabilises at a hypertensive level after 6 weeks. Systolic pressure is measured indirectly using a Decker Caudal Plethysmograph A control group of rats is run with each group treated with drug. Each group usually consists of six rats. Drugs are usually administered by the IP or oral routes. Pressures are read prior to drug administration and at two and 24 hours thereafter.

The next series addresses T1, histamine (Cavia porcellus, UniProt P31389).
T1 construct: from tissue
Description: Antihistamine activity by the method of Alps et al. The following applies: for antihistamine activity: result in words.

The subject of a further series is α-adrenoceptor. As to the kind of experiment: α-Adrenoceptor antagonism on the guinea pig aortic strip. As to conditions: for α-blockade pA2: Table 4; for α-adrenoceptor antagonism: result in words. An excerpt:
Carried out on the guinea pig aortic strip [Furchgott and Bhadrakom (1953) J. Pharmac. exp. Ther. 108, 129-143] by the method of Alps et al [Br. J. Pharmac. 1972 44, 52-62].

Where [2] appears, read: 0.25 h, read-out: Hypotensive Activity.
Where [3] appears, read: Table 4, read-out: Antihistamine pA2 (converted).

Where two headings read alike, the source gives them in different places. Some results are limits rather than exact numbers.

T1 sequence (P31389 whole entry): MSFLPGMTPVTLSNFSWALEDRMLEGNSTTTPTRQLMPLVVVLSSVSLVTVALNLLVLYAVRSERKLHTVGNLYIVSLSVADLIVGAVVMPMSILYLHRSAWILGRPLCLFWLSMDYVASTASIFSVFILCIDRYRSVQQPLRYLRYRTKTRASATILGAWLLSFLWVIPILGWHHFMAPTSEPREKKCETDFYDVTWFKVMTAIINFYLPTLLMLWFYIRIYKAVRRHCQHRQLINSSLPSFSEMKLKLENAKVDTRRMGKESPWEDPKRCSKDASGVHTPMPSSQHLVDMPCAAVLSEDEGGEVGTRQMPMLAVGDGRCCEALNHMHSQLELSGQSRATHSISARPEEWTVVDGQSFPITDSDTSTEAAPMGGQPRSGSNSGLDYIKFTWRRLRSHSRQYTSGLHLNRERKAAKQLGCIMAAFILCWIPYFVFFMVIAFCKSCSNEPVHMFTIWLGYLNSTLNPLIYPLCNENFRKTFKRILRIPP

`O=C(NC1CCN(CCc2cccc3ccccc23)CC1)c1ccccc1` [Example 12, 1-[2-(1-Naphthyl)ethyl]-4-benzamidopiperidine]: the depressant activity result in the series “Depressant activity” is given as “depressant activity”. Also, the minimal effective dose in series [1] (setting [2]) was less than 30 mg/kg.
Take `O=C(NC1CCN(CCC2=CCc3ccccc32)CC1)c1ccccc1` [Example 14, 1-[2-(3-Indenyl)ethyl]-4-benzamidopiperidine]: the hypotensive activity result in the series with blood pressure was “hypotensive activity”. The antihistamine activity result at histamine is listed as “antihistamine activity”. Besides, the minimal effective dose in series [1] (setting [2]) fell in the range of 6.4 to 12.8 mg/kg.
Consider `O=C(NC1CCN(CCCC2=CCc3ccccc32)CC1)c1ccccc1` [Example 15, 1-[3-(3-Indenyl)propyl]-4-benzamidopiperidine], for which the hypotensive activity result in the series with blood pressure is listed as “hypotensive”. Besides, in the series on α-adrenoceptor, the “α-blockade pA2” value came to 7.4. Also, at histamine, the antihistamine activity entry is “antihistamine activities”. Also, the minimal effective dose in series [1] (setting [2]) lay within 6.4 to 12.8 mg/kg.
Take `Cc1ccccc1NC(=O)CCN1CCC(NC(=O)c2ccccc2)CC1` [Example 16, 1-[N-(2-Methylphenyl)carbamoylethyl]-4-benzamidopiperidine]: the depressant activity entry in “Depressant activity” is reported as “depressant activity”.
Consider `CC(=O)Nc1ccc(OCC(O)CN2CCC(NC(=O)c3ccccc3)CC2)cc1` (centres unmarked) [Example 17, 1-[1-(4-Acetamidophenoxy)-2-hydroxyprop-3-yl]-4-benzamidopiperidine], for which the hypotensive activity entry in the series on blood pressure is recorded as “hypotensive activity”. For the same compound, the Kb at histamine (setting [3]) is 100 nM. In addition, the antihistamine activity result on histamine is given as “antihistamine activity”. Also, the minimal effective dose in series [1] (setting [2]) is less than 30 mg/kg.
In the case of `CC(=O)Nc1ccc(O)c(CN2CCC(NC(=O)c3ccccc3)CC2)c1` [Example 18, 1-(5-Acetamido-2-hydroxybenzyl)-4-benzamidopiperidine], in “Depressant activity”, the depressant activity entry is given as “depressant activity”. In addition, the minimal effective dose in series [1] (setting [2]) is less than 30 mg/kg.
Take `O=C(NC1CCN(CCc2ccccc2)CC1)c1ccccc1` [Example 27, 1-Phenethyl-4-benzamidopiperidine]: in the series with blood pressure, the hypotensive activity entry is given as “hypotensive activity”. For the same compound, the “pA2 (α-adrenoceptor antagonism)” value with α-adrenoceptor (guinea pig aortic strip) is reported as 5.7. Further, the Kb at histamine (Table 2) is 79.4 nM. The minimal effective dose in series [1] (setting [2]) was 1.6 to 3.2 mg/kg; in series [1] (read-out: Significant hypotension (dose; fall of 30 mm mercury or more in diastolic pressure)), 3.2 mg/kg. Besides, the “Fatal (dose)” value in series [1] (anaesthetised rat, i.v., cumulative dose) was in the range of 12.8 to 25.6 mg/kg.
For `O=C(NC1CCN(CCCCc2ccc(F)cc2)CC1)c1ccccc1` [Example 40, 1-[4-(p-Fluorophenyl)-n-butyl]-4-benzamidopiperidine], the hypotensive activity entry in the series on blood pressure is listed as “hypotensive activity”. In the series on α-adrenoceptor, the “α-blockade pA2” value was determined as 6.4 and the α-adrenoceptor antagonism entry is recorded as “α-adrenoceptor antagonism”. In addition, the Kb on histamine (setting [3]) was 31.6 nM. The antihistamine activity result on histamine was “anti-histamine activity”. For the same compound, the minimal effective dose in series [1] (setting [2]) was in the range of 1.6 to 3.2 mg/kg.
For the compound `Cc1ccc(C)c(C(=O)CCCN2CCC(NC(=O)c3ccccc3)CC2)c1` [Example 44, 4-Benzamido-1-[4-(2,5-dimethylphenyl)-4-oxobutyl]piperidine], the hypotensive activity entry with blood pressure is “hypotensive activity”. Besides, in the series on α-adrenoceptor, the “α-blockade pA2” value came to 7.5 and the α-adrenoceptor antagonism result is recorded as “α-adrenoceptor antagonist activities”. Further, the Kb at histamine (setting [3]) was 20 nM. Also, the antihistamine activity entry at histamine was “antihistamine”. Moreover, the minimal effective dose in series [1] (setting [2]) fell in the range of 1.6 to 3.2 mg/kg.
For the compound `Cc1ccc(C(=O)CCCN2CCC(NC(=O)c3ccccc3)CC2)c(C)c1` [Example 45, 4-Benzamido-1-[4-(2,4-dimethylphenyl)-4-oxo-butyl]piperidine], the hypotensive activity result in the series on blood pressure is reported as “hypotensive activity”. In addition, in the series with α-adrenoceptor, the “α-blockade pA2” value stood at 7.2 and the α-adrenoceptor antagonism entry is “α-adrenoceptor antagonist activity”. Moreover, the Kb at histamine (setting [3]) is 10 nM. Moreover, at histamine, the antihistamine activity entry was “antihistamine”. Moreover, in series [1] (setting [2]), the minimal effective dose lay within 1.6 to 3.2 mg/kg.
With `O=C(NC1CCN(CCCCc2ccccc2)CC1)c1ccccc1` [Example 46, 1-(4-Phenylbutyl)-4-benzamidopiperidine], in the series with blood pressure, the hypotensive activity entry is listed as “hypotensive activity”. In addition, in the series on α-adrenoceptor, the “α-blockade pA2” value is given as 6.95 and the α-adrenoceptor antagonism entry is “α-adrenoceptor antagonist”. For the same compound, the Kb on histamine (setting [3]) was 39.8 nM. In addition, the antihistamine activity result at histamine is “antihistamine activity”. Further, the minimal effective dose in series [1] (setting [2]) is 6.4 to 12.8 mg/kg.
On to `O=C(NC1CCN(CCOc2ccccc2)CC1)c1ccccc1` [Example 52, 1-(2-Phenoxyethyl)-4-benzamidopiperidine], for which the hypotensive activity result with blood pressure is given as “marked hypotensive activity”. Further, in the series with α-adrenoceptor, the “α-blockade pA2” value was determined as 5.9. In addition, the minimal effective dose in series [1] (setting [2]) was 6.4 to 12.8 mg/kg.
The matching figures for `O=C(CCCN1CCC(NC(=O)c2ccccc2)CC1)c1ccc2c(c1)CCCC2` [Example 58, 1-[4-(1,2,3,4-Tetrahydro-6-naphthyl)-4-oxobutyl]-4-benzamidopiperidine]: “hypotensive activity”, 6.9 and 1.6 to 3.2 mg/kg.
In the case of `O=C(CCN1CCC(NC(=O)c2ccccc2)CC1)c1ccccc1` [Example 69, 4-Benzamido-1-(3-phenyl-3-oxopropyl)piperidine], in the series with blood pressure, the hypotensive activity entry is “marked hypotensive activity”. In addition, in the series on α-adrenoceptor, the “α-blockade pA2” value turned out to be 6.6. Further, the minimal effective dose in series [1] (setting [2]) was 1.6 to 3.2 mg/kg.
For `CC(C)(C)c1ccc(C(=O)CCCN2CCC(NC(=O)c3ccccc3)CC2)cc1` [Example 70, 4-Benzamido-1-[4-(4-tert-butyl-phenyl)-4-oxobutyl]piperidine], in that order: “hypotensive activity”, 6.6 and 0.8 mg/kg.
As for `NC1CCN(CCCC(=O)c2ccccc2)CC1` [Example 72, 4-Amino-1-(4-phenyl-4-oxobutyl)piperidine], in the series with α-adrenoceptor, the “α-blockade pA2” value stood at 6.9.
In the case of `O=C(CCCN1CCC(NC(=O)c2ccc3c(c2)OCO3)CC1)c1ccccc1` [Example 74, 4-Piperonylamido-1-(4-phenyl-4-oxobutyl)-piperidine], the hypotensive activity entry in the series with blood pressure was “hypotensive activity”. Moreover, the “α-blockade pA2” value in the series with α-adrenoceptor is given as 6.4. In addition, the minimal effective dose in series [1] (setting [2]) was in the range of 6.4 to 12.8 mg/kg.
For `O=C(CCCN1CCC(NC(=O)C2CCCCC2)CC1)c1ccccc1` [Example 75, 4-Cyclohexanecarboxamido-1-(4-phenyl-4-oxobutyl)piperidine], in the series with blood pressure, the hypotensive activity result is given as “marked hypotensive activity”. Also, the “α-blockade pA2” value with α-adrenoceptor is recorded as 6.9. Also, the minimal effective dose in series [1] (setting [2]) was 6.4 to 12.8 mg/kg.
As for `O=C(NC1CCN(CCCC(O)c2ccc3c(c2)CCCC3)CC1)c1ccccc1` (centres unmarked) [Example 79, 1-[4-(1',2',3',4'-Tetrahydro-6'-naphthyl)-4-hydroxybutyl]-4-benzamidopiperidine], in the series on blood pressure, the hypotensive activity result is reported as “hypotensive activity”. In addition, the “α-blockade pA2” value in the series on α-adrenoceptor is reported as 6.05. The Kb on histamine (setting [3]) was 100 nM. Moreover, the minimal effective dose in series [1] (setting [2]) is 1.6 to 3.2 mg/kg.
For the compound `O=C(NC1CCN(CCCCc2ccc3c(c2)CCCC3)CC1)c1ccccc1` [Example 81, 1-[4-(1',2',3',4'-Tetrahydro-6-naphthyl)butyl]-4-benzamidopiperidine], in the series with blood pressure, the hypotensive activity entry is “hypotensive activity”. Also, in the series on α-adrenoceptor, the “α-blockade pA2” value is 6.6. Further, the minimal effective dose in series [1] (setting [2]) lay within 1.6 to 3.2 mg/kg.
On to `O=C(NC1CCN(CCCC(c2ccc(F)cc2)c2ccc(F)cc2)CC1)c1ccccc1` [Example 88, 4-(4-Benzamidopiperid-1-yl)-1,1-(di-p-fluorophenyl)butane], for which the hypotensive activity entry in the series with blood pressure is on record as “hypotensive activity”. For the same compound, the “α-blockade pA2” value in the series with α-adrenoceptor stood at 5.9. Further, the minimal effective dose in series [1] (setting [2]) was in the range of 1.6 to 3.2 mg/kg.
Regarding `O=C(NC1CCN(CCC(O)c2ccc3c(c2)OCCO3)CC1)c1ccccc1` (centres unmarked) [Example 92, 1-[3-(1,4-Benzodioxan-6-yl)-3-hydroxypropyl]-4-benzamido piperidine], the hypotensive activity entry in the series on blood pressure is listed as “hypotensive activity”; in series [1] (Table 3, cumulative iv dose, fall in diastolic blood pressure of 30 mm or more for at least 15 min) it was “+ ++”. For the same compound, the “α-blockade pA2” value with α-adrenoceptor worked out at 6.6.
Regarding `O=C(NC1CCN(CCc2ccncc2)CC1)c1ccccc1` [Example 93, 1-[2-(4-Pyridyl)ethyl]-4-benzamidopiperidine], in the series on blood pressure, the hypotensive activity result is “marked hypotensive activity”. The antihistamine activity result at histamine is recorded as “antihistamine activity”. In addition, in series [1] (setting [2]), the minimal effective dose is less than 30 mg/kg.
The matching figures for `O=C(NC1CCN(CCc2c[nH]cn2)CC1)c1ccccc1` [Example 96, 1-[2-(4-Imidazolyl)ethyl]-4-benzamidopiperidine]: “hypotensive activity”, “anti-histamine activity” and 6.4 to 12.8 mg/kg.
With `Cc1cc(CN2CCC(NC(=O)c3ccccc3)CC2)c(C)n1-c1ccccc1` [Example 99, 1-(2,5-Dimethyl-1-phenylpyrrol-3-yl-methyl)-4-benzamidopiperidine], the hypotensive activity result in the series on blood pressure is listed as “hypotensive activity”. The minimal effective dose in series [1] (setting [2]) is less than 30 mg/kg.
With `O=C(NC1CCN(CCc2csc3ccccc23)CC1)c1ccccc1` [Example 100, 1-[2-(3-Benzo[b]thienyl)ethyl]-4-benzamidopiperidine], the hypotensive activity entry in the series with blood pressure is given as “hypotensive activity”. The antihistamine activity result on histamine is given as “antihistamine activity”. Further, the minimal effective dose in series [1] (setting [2]) is less than 30 mg/kg.
